Measured values published in ChEMBL document CHEMBL1130591, “P2-proline-derived inhibitors of calpain I” (Bioorg Med Chem Lett, 1998).
Non-standard residues stand in square brackets, D forms with d. Residues, ends and D or L forms follow the SMILES beside them. *: point of attachment. Tos = Cc1ccc(S(=O)(=O)*)cc1; Ms = CS(=O)(=O)*

Each compound was assayed against T1, Calpain-1 catalytic subunit (Homo sapiens) (UniProt P07384) (assay: Compound was tested for inhibitory activity against recombinant human Calpain 1 at concentration of 1 uM).
T1 sequence (whole entry): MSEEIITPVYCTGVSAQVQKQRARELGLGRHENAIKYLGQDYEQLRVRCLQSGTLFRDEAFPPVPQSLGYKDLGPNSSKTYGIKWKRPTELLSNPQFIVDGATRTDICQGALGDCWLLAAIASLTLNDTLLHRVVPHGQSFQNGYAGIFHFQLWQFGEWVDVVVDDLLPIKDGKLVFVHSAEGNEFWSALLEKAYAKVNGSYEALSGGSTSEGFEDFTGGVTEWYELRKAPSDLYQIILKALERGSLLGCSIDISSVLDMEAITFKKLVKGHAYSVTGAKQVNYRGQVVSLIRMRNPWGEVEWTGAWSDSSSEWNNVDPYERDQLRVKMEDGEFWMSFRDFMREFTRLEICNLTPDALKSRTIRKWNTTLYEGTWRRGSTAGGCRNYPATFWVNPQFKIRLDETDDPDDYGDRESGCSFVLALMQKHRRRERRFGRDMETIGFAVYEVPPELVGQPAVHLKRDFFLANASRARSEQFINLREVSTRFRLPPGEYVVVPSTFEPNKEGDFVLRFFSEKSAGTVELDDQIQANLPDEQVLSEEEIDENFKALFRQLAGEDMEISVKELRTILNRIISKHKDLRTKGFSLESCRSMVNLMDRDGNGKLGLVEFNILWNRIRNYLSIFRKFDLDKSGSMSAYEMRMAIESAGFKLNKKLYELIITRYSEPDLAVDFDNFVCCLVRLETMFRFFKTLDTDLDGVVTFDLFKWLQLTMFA

Structure (SMILES) | inhibition [%]
Cc1ccc(S(=O)(=O)N2C[C@H](NS(C)(=O)=O)CC2C(=O)N[C@H](C=O)Cc2ccccc2)cc1 (single isomer, unassigned) | 40
Cc1ccc(S(=O)(=O)O[C@H]2C[C@H](C(=O)N[C@H](C=O)Cc3ccccc3)N(S(=O)(=O)c3ccc(C)cc3)C2)cc1 | 74
Cc1ccc(S(=O)(=O)O[C@@H]2C[C@H](C(=O)N[C@H](C=O)Cc3ccccc3)N(S(=O)(=O)c3ccccc3)C2)cc1 | 48
Cc1ccc(S(=O)(=O)N2C[C@@H](OS(C)(=O)=O)C[C@@H]2C(=O)N[C@H](C=O)Cc2ccccc2)cc1 | 79

These compounds were tested against T2, Calpain-1 catalytic subunit (Homo sapiens, UniProt P07384) (assay: Compound was tested for inhibitory activity against recombinant human Calpain 1).
T2 sequence (P07384 whole entry): T1 sequence (whole entry)

Structure (SMILES) | IC50 [nM]
O=C[C@H](Cc1ccccc1)NC(=O)[C@@H]1CCCN1S(=O)(=O)c1ccccc1 | 41
CS(=O)(=O)N1CCC[C@H]1C(=O)N[C@H](C=O)Cc1ccccc1 (Ms-Pro-Phe-aldehyde) | 45
O=C[C@H](Cc1ccccc1)NC(=O)[C@@H]1C[C@@H](OS(=O)(=O)c2ccccc2)CN1S(=O)(=O)c1ccccc1 | 13
Cc1ccc(S(=O)(=O)N2C[C@H](C#N)CC2C(=O)N[C@H](C=O)Cc2ccccc2)cc1 (single isomer, unassigned) | 28
O=C[C@H](Cc1ccccc1)NC(=O)[C@@H]1C[C@@H](OCc2ccccc2)CN1S(=O)(=O)c1ccccc1 | 125
Cc1ccc(S(=O)(=O)N2C[C@H](NC(=O)C(F)(F)F)CC2C(=O)N[C@H](C=O)Cc2ccccc2)cc1 (single isomer, unassigned) | 100

What follows are compounds tested against Cathepsin B (Homo sapiens, UniProt P07858) (assay: Compound was tested for inhibitory activity against Cathepsin B.).

Structure (SMILES) | IC50 [µM]
CS(=O)(=O)N1CCC[C@@H]1C(=O)N[C@H](C=O)Cc1ccccc1 (Ms-[dP]-Phe-aldehyde) | 3
O=C[C@H](Cc1ccccc1)NC(=O)[C@@H]1CCCN1S(=O)(=O)c1ccccc1 | 1.4
CS(=O)(=O)N1CCC[C@H]1C(=O)N[C@H](C=O)Cc1ccccc1 (Ms-Pro-Phe-aldehyde) | 0.883
O=C[C@H](Cc1ccccc1)NC(=O)[C@@H]1C[C@@H](OS(=O)(=O)c2ccccc2)CN1S(=O)(=O)c1ccccc1 | 0.038
Cc1ccc(S(=O)(=O)N2C[C@H](C#N)CC2C(=O)N[C@H](C=O)Cc2ccccc2)cc1 (single isomer, unassigned) | 8.7
Cc1ccc(S(=O)(=O)N2C[C@H](N=[N+]=[N-])CC2C(=O)N[C@H](C=O)Cc2ccccc2)cc1 (single isomer, unassigned) | > 10
Cc1ccc(S(=O)(=O)N2CCC[C@@H]2C(=O)N[C@H](C=O)Cc2ccccc2)cc1 (Tos-[dP]-Phe-aldehyde) | 3.6

These compounds were tested against Chymotrypsinogen A (Bos taurus) (UniProt P00766) (assay: Compound was tested for inhibitory activity against alpha-chymotrypsin at concentration of 10 uM.).

Structure (SMILES) | inhibition [%]
CS(=O)(=O)N1CCC[C@@H]1C(=O)N[C@H](C=O)Cc1ccccc1 (Ms-[dP]-Phe-aldehyde) | 2
Cc1ccc(S(=O)(=O)N2C[C@H](C#N)CC2C(=O)N[C@H](C=O)Cc2ccccc2)cc1 (single isomer, unassigned) | 6
Cc1ccc(S(=O)(=O)N2C[C@H](N=[N+]=[N-])CC2C(=O)N[C@H](C=O)Cc2ccccc2)cc1 (single isomer, unassigned) | 9
Cc1ccc(S(=O)(=O)N2CCC[C@@H]2C(=O)N[C@H](C=O)Cc2ccccc2)cc1 (Tos-[dP]-Phe-aldehyde) | 12

Each compound was assayed against Chymotrypsinogen A (Bos taurus) (UniProt P00766) (assay: Compound was tested for inhibitory activity against alpha-chymotrypsin at concentration of 1 uM.).

Structure (SMILES) | inhibition [%]
O=C[C@H](Cc1ccccc1)NC(=O)[C@H]1C[C@H](OS(=O)(=O)c2ccccc2)CN1S(=O)(=O)c1ccccc1 | 42
